Assay results from the NIST ThermoML archive (doi:10.1016/j.jct.2018.08.034).
Where “and” joins values, the source holds several entries; their conditions need not be identical. Equal values may be shown once. Numbers after ± are expanded uncertainties.

What was measured:
[1] = Crystal
[2] = Molar enthalpy of transition or fusion; conditions: Crystal; DSC

c1ccc2cc3ccccc3cc2c1 [anthracene]
[1]
Conditions	vapor or sublimation pressure
343.29 K	0.000192 ± 5.2e-05 kPa
343.3 K	0.000182 ± 5.2e-05 kPa
343.31 K	0.000197 ± 5.2e-05 kPa
345.76 K	0.000235 ± 5.3e-05 kPa and 0.00024 ± 5.2e-05 kPa
345.79 K	0.000247 ± 5.3e-05 kPa
348.21 K	0.000317 ± 5.3e-05 kPa and 0.000305 ± 5.3e-05 kPa
348.27 K	0.000297 ± 5.3e-05 kPa
350.75 K	0.000392 ± 5.4e-05 kPa
350.76 K	0.000401 ± 5.5e-05 kPa
350.79 K	0.000384 ± 5.4e-05 kPa
353.04 K	0.000479 ± 5.5e-05 kPa and 0.000485 ± 5.5e-05 kPa
353.19 K	0.000498 ± 5.5e-05 kPa
355.68 K	0.00063 ± 5.6e-05 kPa
355.73 K	0.000626 ± 5.6e-05 kPa
355.74 K	0.000623 ± 5.6e-05 kPa
358.14 K	0.000799 ± 5.8e-05 kPa
358.15 K	0.000784 ± 5.9e-05 kPa
358.18 K	0.000798 ± 5.8e-05 kPa
360.63 K	0.001 ± 6e-05 kPa
360.66 K	0.000992 ± 6.1e-05 kPa
360.68 K	0.000998 ± 6e-05 kPa
362.95 K	0.00123 ± 6.3e-05 kPa and 0.001232 ± 6.3e-05 kPa
363.13 K	0.001244 ± 6.3e-05 kPa
365.54 K	0.00155 ± 6.7e-05 kPa
365.55 K	0.001551 ± 6.7e-05 kPa
365.56 K	0.001562 ± 6.7e-05 kPa
367.97 K	0.001927 ± 7e-05 kPa and 0.001947 ± 7.1e-05 kPa
367.98 K	0.001941 ± 7.1e-05 kPa
370.43 K	0.002398 ± 7.6e-05 kPa
370.44 K	0.002418 ± 7.6e-05 kPa and 0.002409 ± 7.6e-05 kPa
372.85 K	0.00298 ± 8.3e-05 kPa
372.89 K	0.002973 ± 8.3e-05 kPa and 0.002978 ± 8.3e-05 kPa

c1ccc2cc3sccc3cc2c1 [naphtho[2,3-b]thiophene]
Conditions	Molar enthalpy of transition or fusion [kcal/mol]
[2]	5.09 ± 0.117

Conditions	Normal melting temperature [°C]
[1], DTA	188.6 ± 0.9
